Patent US6737383B1, “Herbicidal oxadiazolidines” (priority 1999, dated 2004)

How the values were obtained:
bedstraw = experiment: Test B pre/postemergence bedstraw; type: in vivo, Galium aparine
Method in brief: (§1)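 Test chemicals in a non-phytotoxic solvent mixture with surfactant were sprayed preemergence onto planted seeds and postemergence onto plants 2 to 18 cm tall (1- to 4-leaf stage). After twelve to sixteen days in a greenhouse, injury was visually rated against untreated controls from 0 (no effect) to 10 (complete control).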

surinam grass = experiment: Test B pre/postemergence surinam grass; type: in vivo, Brachiaria decumbens
Method in brief: as §1

cocklebur = experiment: Test B pre/postemergence cocklebur; type: in vivo, Xanthium strumarium
Method in brief: as §1

corn = experiment: Test B pre/postemergence corn; type: in vivo, Zea mays
Method in brief: as §1

crabgrass = experiment: Test B pre/postemergence crabgrass; type: in vivo, Digitaria sanguinalis
Method in brief: as §1

giant foxtail = experiment: Test B pre/postemergence giant foxtail; type: in vivo, Setaria faberii
Method in brief: as §1

morningglory = experiment: Test B pre/postemergence morningglory; type: in vivo, Ipomoea hederacea
Method in brief: as §1

pigweed = experiment: Test B pre/postemergence pigweed; type: in vivo, Amaranthus retroflexus
Method in brief: as §1

rape = experiment: Test B pre/postemergence rape; type: in vivo, Brassica napus
Method in brief: as §1

soybean = experiment: Test B pre/postemergence soybean; type: in vivo, Glycine max
Method in brief: as §1

sugar beet = experiment: Test B pre/postemergence sugar beet; type: in vivo, Beta vulgaris
Method in brief: as §1

velvetleaf = experiment: Test B pre/postemergence velvetleaf; type: in vivo, Abutilon theophrasti
Method in brief: as §1

wheat = experiment: Test B pre/postemergence wheat; type: in vivo, Triticum aestivum
Method in brief: as §1

purple nutsedge = experiment: Test B pre/postemergence purple nutsedge; type: in vivo, Cyperus rotundus
Method in brief: as §1

duck salad = experiment: Test B flood test duck salad; type: in vivo, Heteranthera limosa
Method in brief: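 Flood test on plants grown to the 2-leaf stage; treated plants kept in greenhouse twelve to sixteen days, then visually rated against controls on a 0 (no effect) to 10 (complete control) scale.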

[1] = Preemergence, Rate 62 g/ha, scale of 0 to 10 where 0 is no effect and 10 is complete control
[2] = Preemergence, Rate 125 g/ha, 0 is no effect, 10 is complete control
[3] = Preemergence, Rate 250 g/ha, scale 0 to 10, 0 is no effect, 10 is complete control
[4] = Preemergence, Rate 500 g/ha, scale of 0 to 10 where 0 is no effect and 10 is complete control
[5] = Rate 62 g/ha, Postemergence, scale of 0 to 10 where 0 is no effect and 10 is complete control
[6] = Rate 125 g/ha, Postemergence, scale 0 to 10
[7] = Rate 500 g/ha, Postemergence, scale 0 to 10

Structure (SMILES): CC(C)N(C(=O)n1oc(=O)n(Cc2ccco2)c1=O)c1ccc(F)cc1F [Compound 208]
- Bedstraw plant response rating (bedstraw; [1]): 0
- Bedstraw plant response rating (0 to 10 scale) (bedstraw; [2]): 0
- Bedstraw plant response rating (bedstraw; [3]): 0
- Plant response rating, Bedstraw (bedstraw; [4]): 0
- Bedstraw plant response rating (bedstraw; [5]): 0
- Bedstraw plant response rating (bedstraw; [6]): 0
- Plant response rating (0 to 10; 0 is no effect, 10 is complete control), Bedstraw (bedstraw; Rate 250 g/ha, Postemergence): 0
- Bedstraw plant response rating (bedstraw; [7]): 5
- B. signalgrass plant response rating (surinam grass; [1]): 0
- B. signalgrass plant response rating (0 to 10 scale) (surinam grass; [2]): 0
- B. signalgrass plant response rating (surinam grass; [3]): 0
- Plant response rating, B. signalgrass (surinam grass; [4]): 0
- B. signalgrass plant response rating (surinam grass; [5]): 0
- B. signalgrass plant response rating (surinam grass; Rate 125 g/ha, Postemergence, scale 0 (no effect) to 10 (complete control)): 0
- Plant response rating (0 to 10; 0 is no effect, 10 is complete control), B. signalgrass (surinam grass; Rate 250 g/ha, Postemergence): 0
- B. signalgrass plant response rating (surinam grass; Rate 500 g/ha, Postemergence, scale 0 to 10, 0 no effect, 10 complete control): 3
- Cocklebur plant response rating (cocklebur; [1]): 0
- Cocklebur plant response rating (0 to 10 scale) (cocklebur; [2]): 0
- Cocklebur plant response rating (cocklebur; [3]): 0
- Plant response rating, Cocklebur (cocklebur; [4]): 0
- Cocklebur plant response rating (cocklebur; [5]): 0
- Cocklebur plant response rating (cocklebur; [6]): 0
- Plant response rating (0 to 10; 0 is no effect, 10 is complete control), Cocklebur (cocklebur; Rate 250 g/ha, Postemergence): 0
- Cocklebur plant response rating (cocklebur; [7]): 0
- Corn plant response rating (corn; [1]): 0
- Corn plant response rating (0 to 10 scale) (corn; [2]): 0
- Corn plant response rating (corn; [3]): 0
- Plant response rating, Corn (corn; [4]): 0
- Corn plant response rating (corn; [5]): 0
- Corn plant response rating (corn; [6]): 0
- Plant response rating (0 to 10; 0 is no effect, 10 is complete control), Corn (corn; Rate 250 g/ha, Postemergence): 0
- Corn plant response rating (corn; [7]): 0
- Crabgrass plant response rating (crabgrass; [1]): 4
- Crabgrass plant response rating (0 to 10 scale) (crabgrass; [2]): 5
- Crabgrass plant response rating (crabgrass; [3]): 6
- Plant response rating, Crabgrass (crabgrass; [4]): 6
- Crabgrass plant response rating (crabgrass; [5]): 0
- Crabgrass plant response rating (crabgrass; [6]): 0
- Plant response rating (0 to 10; 0 is no effect, 10 is complete control), Crabgrass (crabgrass; Rate 250 g/ha, Postemergence): 0
- Crabgrass plant response rating (crabgrass; [7]): 3
- Giant foxtail plant response rating (giant foxtail; [1]): 2
- Giant foxtail plant response rating (0 to 10 scale) (giant foxtail; [2]): 8
- Giant foxtail plant response rating (giant foxtail; [3]): 9
- Plant response rating, Giant foxtail (giant foxtail; [4]): 10
- Giant foxtail plant response rating (giant foxtail; [5]): 0
- Giant foxtail plant response rating (giant foxtail; [6]): 0
- Plant response rating (0 to 10; 0 is no effect, 10 is complete control), Giant foxtail (giant foxtail; Rate 250 g/ha, Postemergence): 0
- Giant foxtail plant response rating (giant foxtail; [7]): 1
- Morningglory plant response rating (morningglory; [1]): 0
- Morningglory plant response rating (0 to 10 scale) (morningglory; [2]): 0
- Morningglory plant response rating (morningglory; [3]): 0
- Plant response rating, Morningglory (morningglory; [4]): 0
- Morningglory plant response rating (morningglory; [5]): 1
- Morningglory plant response rating (morningglory; [6]): 1
- Plant response rating (0 to 10; 0 is no effect, 10 is complete control), Morningglory (morningglory; Rate 250 g/ha, Postemergence): 1
- Morningglory plant response rating (morningglory; [7]): 3
- Redroot pigweed plant response rating (pigweed; [1]): 0
- Redroot pigweed plant response rating (0 to 10 scale) (pigweed; [2]): 0
- Redroot pigweed plant response rating (pigweed; [3]): 0
- Plant response rating, Redroot pigweed (pigweed; [4]): 2
- Redroot pigweed plant response rating (pigweed; [5]): 0
- Redroot pigweed plant response rating (pigweed; [6]): 0
- Plant response rating (0 to 10; 0 is no effect, 10 is complete control), Redroot pigweed (pigweed; Rate 250 g/ha, Postemergence): 0
- Redroot pigweed plant response rating (pigweed; [7]): 0
- Rape plant response rating (rape; [1]): 0
- Rape plant response rating (0 to 10 scale) (rape; [2]): 0
- Rape plant response rating (rape; [3]): 0
- Plant response rating, Rape (rape; [4]): 0
- Rape plant response rating (rape; [5]): 0
- Rape plant response rating (rape; [6]): 0
- Plant response rating (0 to 10; 0 is no effect, 10 is complete control), Rape (rape; Rate 250 g/ha, Postemergence): 0
- Rape plant response rating (rape; [7]): 0
- Soybean plant response rating (soybean; [1]): 0
- Soybean plant response rating (0 to 10 scale) (soybean; [2]): 0
- Soybean plant response rating (soybean; [3]): 0
- Plant response rating, Soybean (soybean; [4]): 0
- Soybean plant response rating (soybean; [5]): 1
- Soybean plant response rating (soybean; [6]): 1
- Plant response rating (0 to 10; 0 is no effect, 10 is complete control), Soybean (soybean; Rate 250 g/ha, Postemergence): 2
- Soybean plant response rating (soybean; [7]): 2
- Sugarbeets plant response rating (sugar beet; [1]): 0
- Sugarbeets plant response rating (0 to 10 scale) (sugar beet; [2]): 0
- Sugarbeets plant response rating (sugar beet; [3]): 0
- Plant response rating, Sugarbeets (sugar beet; [4]): 0
- Sugarbeets plant response rating (sugar beet; [5]): 0
- Sugarbeets plant response rating (sugar beet; [6]): 0
- Plant response rating (0 to 10; 0 is no effect, 10 is complete control), Sugarbeets (sugar beet; Rate 250 g/ha, Postemergence): 0
- Sugarbeets plant response rating (sugar beet; [7]): 0
- Velvetleaf plant response rating (velvetleaf; [1]): 0
- Velvetleaf plant response rating (velvetleaf; [3]): 0
- Plant response rating, Velvetleaf (velvetleaf; [4]): 3
- Velvetleaf plant response rating (velvetleaf; [5]): 1
- Velvetleaf plant response rating (velvetleaf; [6]): 1
- Plant response rating (0 to 10; 0 is no effect, 10 is complete control), Velvetleaf (velvetleaf; Rate 250 g/ha, Postemergence): 1
- Wheat plant response rating (wheat; [1]): 0
- Wheat plant response rating (wheat; [3]): 0
- Plant response rating, Wheat (wheat; [4]): 0
- Wheat plant response rating (wheat; [5]): 0
- Wheat plant response rating (wheat; [6]): 0
- Plant response rating (0 to 10; 0 is no effect, 10 is complete control), Wheat (wheat; Rate 250 g/ha, Postemergence): 0
- Nutsedge plant response rating (purple nutsedge; [1]): 0
- Nutsedge plant response rating (0 to 10 scale) (purple nutsedge; [2]): 0
- Nutsedge plant response rating (purple nutsedge; [3]): 0
- Plant response rating, Nutsedge (purple nutsedge; [4]): 0
- Nutsedge plant response rating (purple nutsedge; [5]): 0
- Nutsedge plant response rating (purple nutsedge; [6]): 0
- Plant response rating (0 to 10; 0 is no effect, 10 is complete control), Nutsedge (purple nutsedge; Rate 250 g/ha, Postemergence): 0
- Nutsedge plant response rating (purple nutsedge; [7]): 0
- Ducksalad plant response rating (duck salad; Rate 62 g/ha, headed Pre-emergence (flood test species), scale 0 to 10 (0 no effect, 10 complete control)): 0
- Ducksalad plant response rating (duck salad; Rate 125 g/ha, Pre-emergence, flood test species, scale 0 to 10 where 0 is no effect and 10 is complete control): 0
- Ducksalad plant response rating (duck salad; Rate 250 g/ha, Pre-emergence, flood-test species, scale 0 to 10, 0 is no effect, 10 is complete control): 0
- Ducksalad plant response rating (duck salad; Rate 500 g/ha, Pre-emergence, flood test species, scale 0 to 10 (0 no effect, 10 complete control)): 0
